Experimental data as given in PubChem BioAssay AID504934 (The Scripps Research Institute Molecular Screening Center, 2011).
Calls of active or inactive are those of the source. How the calls were made is not given here.

Tests used:
Assay in all cases: PubChem AID 504934
[1] = tested on: TLX; details: nuclear receptor panel Gal4 luciferase reporter, at 10 µM
[2] = biological target: Steroidogenic factor 1 (Homo sapiens) (UniProt Q13285); details: nuclear receptor panel Gal4 luciferase reporter, SF1, at 10 µM
Steroidogenic factor 1 (Homo sapiens), sequence (Q13285 whole entry, looked up, the tested form may be a part): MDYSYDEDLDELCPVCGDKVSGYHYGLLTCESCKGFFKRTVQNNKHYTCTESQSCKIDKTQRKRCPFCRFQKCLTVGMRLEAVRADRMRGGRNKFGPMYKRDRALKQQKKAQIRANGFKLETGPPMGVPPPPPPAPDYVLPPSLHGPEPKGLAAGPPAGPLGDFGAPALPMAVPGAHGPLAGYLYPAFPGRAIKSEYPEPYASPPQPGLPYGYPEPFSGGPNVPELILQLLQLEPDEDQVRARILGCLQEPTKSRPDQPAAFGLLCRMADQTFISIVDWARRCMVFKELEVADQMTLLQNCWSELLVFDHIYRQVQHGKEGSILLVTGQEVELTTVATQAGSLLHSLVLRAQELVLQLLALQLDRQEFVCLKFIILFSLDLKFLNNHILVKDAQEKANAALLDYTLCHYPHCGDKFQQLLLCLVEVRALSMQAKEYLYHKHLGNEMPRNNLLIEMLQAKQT

[3] = biological target: Peroxisome proliferator-activated receptor alpha (Homo sapiens) (UniProt Q07869); details: nuclear receptor panel Gal4 luciferase reporter, PPARa, at 10 µM
Peroxisome proliferator-activated receptor alpha (Homo sapiens), sequence (Q07869 whole entry, looked up, the tested form may be a part): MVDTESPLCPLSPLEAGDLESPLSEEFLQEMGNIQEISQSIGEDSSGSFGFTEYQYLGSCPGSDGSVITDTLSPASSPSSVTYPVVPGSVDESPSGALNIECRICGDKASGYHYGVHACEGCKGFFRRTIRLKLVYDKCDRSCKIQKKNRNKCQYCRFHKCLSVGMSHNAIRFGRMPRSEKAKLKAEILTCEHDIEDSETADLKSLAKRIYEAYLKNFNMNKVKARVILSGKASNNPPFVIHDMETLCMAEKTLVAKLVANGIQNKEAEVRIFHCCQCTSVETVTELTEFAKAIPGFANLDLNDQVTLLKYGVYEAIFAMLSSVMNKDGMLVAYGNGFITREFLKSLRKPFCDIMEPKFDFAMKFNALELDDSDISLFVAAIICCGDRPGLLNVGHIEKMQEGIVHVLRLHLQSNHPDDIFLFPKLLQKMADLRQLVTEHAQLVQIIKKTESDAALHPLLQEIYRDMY

[4] = biological target: COUP transcription factor 2 (Homo sapiens) (UniProt P24468); details: nuclear receptor panel Gal4 luciferase reporter, Coup-TF2, at 10 µM
COUP transcription factor 2 (Homo sapiens), sequence (P24468 whole entry, looked up, the tested form may be a part): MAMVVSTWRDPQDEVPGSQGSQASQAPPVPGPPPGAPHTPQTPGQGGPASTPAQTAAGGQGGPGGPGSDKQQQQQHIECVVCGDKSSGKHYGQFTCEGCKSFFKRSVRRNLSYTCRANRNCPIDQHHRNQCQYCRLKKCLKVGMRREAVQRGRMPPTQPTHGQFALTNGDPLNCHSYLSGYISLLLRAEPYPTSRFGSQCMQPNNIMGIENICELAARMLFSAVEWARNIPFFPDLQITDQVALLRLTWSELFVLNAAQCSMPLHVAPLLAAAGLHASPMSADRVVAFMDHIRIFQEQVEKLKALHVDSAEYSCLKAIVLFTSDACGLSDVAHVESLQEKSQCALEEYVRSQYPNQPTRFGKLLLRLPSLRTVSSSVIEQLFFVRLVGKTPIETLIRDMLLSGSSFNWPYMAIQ

[5] = tested on: Nur77; details: nuclear receptor panel Gal4 luciferase reporter, at 10 µM
[6] = tested on: Rev-erb b; details: nuclear receptor panel Gal4 luciferase reporter, at 10 µM
[7] = tested on: TR2; details: nuclear receptor panel Gal4 luciferase reporter, at 10 µM
[8] = biological target: Nuclear receptor subfamily 5 group A member 2 (Homo sapiens) (UniProt O00482); details: nuclear receptor panel Gal4 luciferase reporter, LRH1, at 10 µM
Nuclear receptor subfamily 5 group A member 2 (Homo sapiens), sequence (O00482 whole entry, looked up, the tested form may be a part): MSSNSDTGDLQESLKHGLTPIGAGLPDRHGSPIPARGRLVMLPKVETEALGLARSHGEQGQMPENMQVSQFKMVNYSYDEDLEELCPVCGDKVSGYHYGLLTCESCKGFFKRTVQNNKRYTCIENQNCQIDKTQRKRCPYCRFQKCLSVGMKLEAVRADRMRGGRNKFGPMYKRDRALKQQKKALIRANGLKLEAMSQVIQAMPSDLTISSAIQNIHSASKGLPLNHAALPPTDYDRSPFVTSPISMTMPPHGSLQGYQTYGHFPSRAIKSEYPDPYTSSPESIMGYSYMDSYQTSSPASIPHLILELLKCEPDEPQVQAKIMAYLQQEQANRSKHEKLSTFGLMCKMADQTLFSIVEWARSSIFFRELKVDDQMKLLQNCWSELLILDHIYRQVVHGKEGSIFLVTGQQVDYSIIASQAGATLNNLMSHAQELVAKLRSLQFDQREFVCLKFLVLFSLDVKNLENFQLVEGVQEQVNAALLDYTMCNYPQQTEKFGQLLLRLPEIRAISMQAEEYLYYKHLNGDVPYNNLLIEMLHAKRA

[9] = biological target: Oxysterols receptor LXR-beta (Homo sapiens) (UniProt P55055); details: nuclear receptor panel Gal4 luciferase reporter, LXRb, at 10 µM
Oxysterols receptor LXR-beta (Homo sapiens), sequence (P55055 whole entry, looked up, the tested form may be a part): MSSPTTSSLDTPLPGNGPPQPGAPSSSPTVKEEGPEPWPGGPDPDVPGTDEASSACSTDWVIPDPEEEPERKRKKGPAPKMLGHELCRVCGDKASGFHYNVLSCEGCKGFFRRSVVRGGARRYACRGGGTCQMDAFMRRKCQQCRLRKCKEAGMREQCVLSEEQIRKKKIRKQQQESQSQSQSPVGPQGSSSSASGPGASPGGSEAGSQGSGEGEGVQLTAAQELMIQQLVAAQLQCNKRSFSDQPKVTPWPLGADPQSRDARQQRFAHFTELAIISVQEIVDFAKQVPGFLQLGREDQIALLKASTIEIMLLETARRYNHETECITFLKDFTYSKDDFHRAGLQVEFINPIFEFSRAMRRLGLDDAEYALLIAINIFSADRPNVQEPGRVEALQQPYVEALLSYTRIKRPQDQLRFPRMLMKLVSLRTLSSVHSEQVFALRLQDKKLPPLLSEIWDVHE

[10] = tested on: pBIND-1; details: nuclear receptor panel Gal4 luciferase reporter, at 10 µM
[11] = biological target: Nuclear receptor subfamily 0 group B member 1 (Homo sapiens) (UniProt P51843); details: nuclear receptor panel Gal4 luciferase reporter, DAX, at 10 µM
Nuclear receptor subfamily 0 group B member 1 (Homo sapiens), sequence (P51843 whole entry, looked up, the tested form may be a part): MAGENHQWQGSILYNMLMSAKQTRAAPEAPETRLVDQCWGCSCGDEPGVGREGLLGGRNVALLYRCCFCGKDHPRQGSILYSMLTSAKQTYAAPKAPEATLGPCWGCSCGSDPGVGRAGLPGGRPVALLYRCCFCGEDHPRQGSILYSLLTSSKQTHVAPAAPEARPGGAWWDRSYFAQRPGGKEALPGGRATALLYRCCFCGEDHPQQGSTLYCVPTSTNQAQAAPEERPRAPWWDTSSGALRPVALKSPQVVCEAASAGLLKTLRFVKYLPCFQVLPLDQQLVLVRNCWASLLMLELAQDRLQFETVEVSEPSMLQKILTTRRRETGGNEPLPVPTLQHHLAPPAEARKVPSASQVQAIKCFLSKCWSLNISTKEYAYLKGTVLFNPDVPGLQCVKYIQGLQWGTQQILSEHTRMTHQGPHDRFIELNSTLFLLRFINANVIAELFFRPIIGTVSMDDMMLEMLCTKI

[12] = tested on: PGR; details: nuclear receptor panel Gal4 luciferase reporter, at 10 µM
[13] = tested on: RXRg; details: nuclear receptor panel Gal4 luciferase reporter, at 10 µM
[14] = biological target: Estrogen receptor beta (Homo sapiens) (UniProt Q92731); details: nuclear receptor panel Gal4 luciferase reporter, Erb (ESR2), at 10 µM
Estrogen receptor beta (Homo sapiens), sequence (Q92731 whole entry, looked up, the tested form may be a part): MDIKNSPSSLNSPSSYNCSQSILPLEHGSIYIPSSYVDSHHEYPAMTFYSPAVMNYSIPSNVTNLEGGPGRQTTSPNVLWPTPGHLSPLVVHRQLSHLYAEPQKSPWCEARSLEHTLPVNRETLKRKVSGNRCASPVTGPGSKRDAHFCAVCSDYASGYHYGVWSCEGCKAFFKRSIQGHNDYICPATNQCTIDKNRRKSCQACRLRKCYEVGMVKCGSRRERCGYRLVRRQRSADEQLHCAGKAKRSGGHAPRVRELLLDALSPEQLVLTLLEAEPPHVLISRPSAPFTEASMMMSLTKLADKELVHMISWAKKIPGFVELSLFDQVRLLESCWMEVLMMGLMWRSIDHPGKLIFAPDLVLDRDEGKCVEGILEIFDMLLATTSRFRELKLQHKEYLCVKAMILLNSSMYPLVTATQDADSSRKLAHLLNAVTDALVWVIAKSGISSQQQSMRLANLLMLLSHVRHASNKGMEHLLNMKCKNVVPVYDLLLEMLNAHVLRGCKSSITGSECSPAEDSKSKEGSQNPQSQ

[15] = biological target: Glucocorticoid receptor (Homo sapiens) (UniProt P04150); details: nuclear receptor panel Gal4 luciferase reporter, GCCR, at 10 µM
Glucocorticoid receptor (Homo sapiens), sequence (P04150 whole entry, looked up, the tested form may be a part): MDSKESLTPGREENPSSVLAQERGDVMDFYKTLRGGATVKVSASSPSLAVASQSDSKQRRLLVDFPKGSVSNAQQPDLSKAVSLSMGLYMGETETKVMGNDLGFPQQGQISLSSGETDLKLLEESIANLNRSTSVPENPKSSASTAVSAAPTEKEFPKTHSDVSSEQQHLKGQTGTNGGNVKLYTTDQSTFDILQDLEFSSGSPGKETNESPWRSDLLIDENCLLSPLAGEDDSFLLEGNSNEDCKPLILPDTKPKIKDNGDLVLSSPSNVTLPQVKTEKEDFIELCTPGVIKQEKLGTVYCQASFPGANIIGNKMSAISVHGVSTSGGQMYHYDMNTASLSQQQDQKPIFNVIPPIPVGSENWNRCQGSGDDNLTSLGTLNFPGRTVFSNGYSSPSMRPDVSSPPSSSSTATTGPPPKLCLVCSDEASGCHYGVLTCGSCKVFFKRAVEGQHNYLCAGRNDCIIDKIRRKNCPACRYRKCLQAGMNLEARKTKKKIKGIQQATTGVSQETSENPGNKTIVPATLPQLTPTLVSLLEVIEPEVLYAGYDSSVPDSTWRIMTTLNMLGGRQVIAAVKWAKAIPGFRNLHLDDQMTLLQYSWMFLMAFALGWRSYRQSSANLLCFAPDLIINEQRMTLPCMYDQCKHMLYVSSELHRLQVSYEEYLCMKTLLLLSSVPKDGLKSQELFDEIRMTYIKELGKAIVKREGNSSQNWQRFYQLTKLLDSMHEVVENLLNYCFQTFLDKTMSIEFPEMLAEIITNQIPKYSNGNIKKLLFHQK

[16] = tested on: PPARd; details: nuclear receptor panel Gal4 luciferase reporter, at 10 µM
[17] = tested on: NOR1; details: nuclear receptor panel Gal4 luciferase reporter, at 10 µM
[18] = tested on: ERRb; details: nuclear receptor panel Gal4 luciferase reporter, at 10 µM
[19] = tested on: THRa; details: nuclear receptor panel Gal4 luciferase reporter, at 10 µM
[20] = biological target: Bile acid receptor (Homo sapiens) (UniProt Q96RI1); details: nuclear receptor panel Gal4 luciferase reporter, FXR, at 10 µM
Bile acid receptor (Homo sapiens), sequence (Q96RI1 whole entry, looked up, the tested form may be a part): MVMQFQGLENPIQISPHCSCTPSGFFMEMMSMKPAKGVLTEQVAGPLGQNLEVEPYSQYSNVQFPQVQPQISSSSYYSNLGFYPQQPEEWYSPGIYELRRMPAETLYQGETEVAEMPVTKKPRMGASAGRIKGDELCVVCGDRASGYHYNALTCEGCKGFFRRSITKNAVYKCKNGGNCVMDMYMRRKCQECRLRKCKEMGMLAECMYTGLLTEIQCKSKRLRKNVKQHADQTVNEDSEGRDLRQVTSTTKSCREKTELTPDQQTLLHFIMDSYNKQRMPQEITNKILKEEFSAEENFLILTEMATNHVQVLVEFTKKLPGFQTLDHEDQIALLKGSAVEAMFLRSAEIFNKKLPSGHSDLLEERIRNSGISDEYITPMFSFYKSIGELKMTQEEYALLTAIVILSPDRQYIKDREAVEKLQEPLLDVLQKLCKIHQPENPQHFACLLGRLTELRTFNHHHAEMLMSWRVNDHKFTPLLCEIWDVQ

[21] = tested on: GCNR; details: nuclear receptor panel Gal4 luciferase reporter, at 10 µM
[22] = tested on: RARb; details: nuclear receptor panel Gal4 luciferase reporter, at 10 µM
[23] = tested on: SHP; details: nuclear receptor panel Gal4 luciferase reporter, at 10 µM

fold change [1]: 0.88 (inactive)
fold change [2]: 0.71
fold change [3]: 1.11 (inactive)
fold change [4]: 1.04 (inactive)
fold change [5]: 0.72
fold change [6]: 0.69
fold change [7]: 0.63
fold change [8]: 0.88 (inactive)
fold change [9]: 1.9 (inactive)
fold change [11]: 1.03 (inactive)
fold change [12]: 0.97 (inactive)
fold change [13]: 0.81 (inactive)
fold change [14]: 0.56
fold change [15]: 1.13 (inactive)
fold change [16]: 1.54
fold change [17]: 0.87 (inactive)
fold change [18]: 1.02 (inactive)
fold change [19]: 1.69
fold change [20]: 2.52
fold change [21]: 1.06 (inactive)
fold change [22]: 0.54
fold change [23]: 0.86 (inactive)
SMILES: O=c1cc(N2CCN(c3cccc(Cl)c3)CC2)[nH]c(=O)n1C1CCCCC1
fold change [10]: 1.28
